# Experimental data published in patent US12194050B2, “Thiadiazine derivatives” (RICHTER GEDEON NYRT., priority 2018, dated 2025).
# Target: human α7 nAchR (Homo sapiens (Human), UniProt P36544)
# Experiment: Human α7 nicotinic acetylcholine receptor [Ca2+]i assay (PAM, Ca2+ fluorometry)
# Assay type: cell-based
# Settings: Flp-In 293 cells expressing human α7 nAchR and human RIC-3; in presence of saturating agonist (mostly PNU-282987, 1 μM)
# Procedure: Biological Activity Human α7 Nicotinic Acetylcholine Receptor [Ca^2+]i Assay
# Cells: Flp-In 293 cells stably expressing human α7 nAchR and human RIC-3 (α7 cells, generated in house.)
# Materials: 96-well plates coated with PDL (Falcon), culture medium, assay buffer, DMSO, FLIPR Calcium 5 kit (Molecular Devices), probenecid, agonist and PAM test compounds.
# Brief Description of the Method (Ca^2+ Fluorometry)
# α7 cells stably expressing human α7 nAchR were cultured in the medium detailed above, and were split twice a week. For the fluorometric measurements of cytosolic Ca^2+ ion concentration ([Ca^2+]i) cells were seeded in 96-well microplates at a density of 60000 cells/well and maintained overnight in a tissue culture incubator at 37° C. under an atmosphere of 95% air/5% CO2. The plating medium was identical with the culture medium. 50 μl of the growth medium was aspirated with a cell washer (BioTek Elx405UCVWS). Then 50 μl/well Calcium 5 kit diluted 2-fold in assay buffer was added manually using an 8-channel pipette. After an incubation period (20 minutes, 37° C.) 50 μl/well assay buffer containing vehicle (DMSO, 4% added) or reference α7 PAMs (4×of the final concentration) were added manually and the cells were incubated for an additional 10 minutes at 37° C. Baseline and agonist-evoked [Ca2+]i-changes were monitored with FlexStation II (Molecular Devices, Sunnyvale, Calif.), a plate reader fluorometer with integrated 8-channel fluid addition capability. Fluorescence measurements were carried out at 37° C. The dye was excited at 485 nm, emission was sampled at 525 nm at 1.4-s intervals. Baseline was recorded for 20 seconds followed by agonist stimulation. 50 μl 4× concentrated agonist solution was added to the cells using the pipettor of FlexStation II and fluorescence was monitored for an additional 40 seconds. Final DMSO concentration was 1% for all treatments. To achieve this, a series of DMSO stock solutions were prepared from all test compounds. These stocks were stored under 0° C. and were further diluted in assay buffer to obtain the desired final concentration immediately before the measurement. Agonist and PAM concentration-response studies were conducted in the presence of saturating concentrations of PAMs (mostly PNU-120596, 5 μM) and agonists (mostly PNU-282987, 1 μM), respectively. Results were expressed as ΔF/F values using SoftMax Pro software (Molecular Devices), where F was the resting fluorescence preceding agonist application and ΔF was the increase in fluorescence at a given time (ΔF=maximum fluorescence intensity values after stimulation minus average fluorescence intensity values before stimulation). In all experiments, all treatments were measured in multiple wells in parallel, and the mean ΔF/F values were used for analysis.
# Chain of human α7 nAchR (P36544 23-502): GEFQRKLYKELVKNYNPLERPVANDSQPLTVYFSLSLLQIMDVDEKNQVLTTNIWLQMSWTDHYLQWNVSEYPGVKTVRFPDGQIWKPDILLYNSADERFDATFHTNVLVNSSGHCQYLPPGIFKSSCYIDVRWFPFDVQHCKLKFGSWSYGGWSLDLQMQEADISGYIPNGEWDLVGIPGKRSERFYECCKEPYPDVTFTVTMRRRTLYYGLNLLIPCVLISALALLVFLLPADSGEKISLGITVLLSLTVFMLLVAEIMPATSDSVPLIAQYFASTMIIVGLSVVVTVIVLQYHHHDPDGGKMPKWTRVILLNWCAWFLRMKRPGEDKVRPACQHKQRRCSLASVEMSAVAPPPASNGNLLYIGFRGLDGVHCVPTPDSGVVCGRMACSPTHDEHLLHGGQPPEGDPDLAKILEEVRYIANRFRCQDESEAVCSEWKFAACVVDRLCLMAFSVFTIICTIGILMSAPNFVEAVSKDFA
row,EC50 [nM],Structure (SMILES)
1,620,CCN1C(C(=O)Nc2cccc(F)n2)=CC(C2CCC(F)(F)CC2)=NS1(=O)=O [Example 70]
2,140,CCN1C(C(=O)Nc2cccc(C(F)(F)F)n2)=CC([C@H]2CC3C[C@@H]3C2)=NS1(=O)=O (some centres unmarked) [Example 71]
3,430,CCN1C(C(=O)Nc2cccc(F)n2)=CC([C@H]2CC3C[C@@H]3C2)=NS1(=O)=O (some centres unmarked) [Example 72]
4,390,CCN1C(C(=O)Nc2cccc(C(F)(F)F)n2)=CC(C2CCCCC2)=NS1(=O)=O [Example 73]
5,1100,CCN1C(C(=O)Nc2cccc(F)n2)=CC(C2CCCCC2)=NS1(=O)=O [Example 74]
6,960,CCN1C(C(=O)Nc2cccc(C(F)(F)F)n2)=CC(C2CC=CC2)=NS1(=O)=O [Example 75]
7,85,CCN1C(C(=O)Nc2cccc(C#N)n2)=CC([C@H]2CC[C@H](C(F)(F)F)CC2)=NS1(=O)=O [Example 76]
8,1500,CCN1C(C(=O)Nc2ccc(F)c(C)n2)=CC([C@H]2CC[C@H](C(F)(F)F)CC2)=NS1(=O)=O [Example 77]
9,790,CCN1C(C(=O)Nc2cccc(C(C)(F)F)n2)=CC([C@H]2CC[C@H](C(F)(F)F)CC2)=NS1(=O)=O [Example 78]
10,320,CCN1C(C(=O)Nc2ccnc(F)n2)=CC([C@H]2CC[C@H](C(F)(F)F)CC2)=NS1(=O)=O [Example 79]
11,350,CCN1C(C(=O)Nc2cccc(C(F)F)n2)=CC([C@H]2CC[C@H](C(F)(F)F)CC2)=NS1(=O)=O [Example 80]
12,120,CC[C@@H](C)N1C(C(=O)Nc2cccc(C(F)(F)F)n2)=CC(c2ccc(OC)c(OC)c2)=NS1(=O)=O [Example 81]
13,120,CC[C@H](C)N1C(C(=O)Nc2cccc(C(F)(F)F)n2)=CC(c2ccc(OC)c(OC)c2)=NS1(=O)=O [Example 82]
14,310,COc1ccc(C2=NS(=O)(=O)N([C@H]3CCOC3)C(C(=O)Nc3cccc(C(F)(F)F)n3)=C2)cc1OC [Example 83]
15,130,COc1ccc(C2=NS(=O)(=O)N([C@@H]3CCOC3)C(C(=O)Nc3cccc(C(F)(F)F)n3)=C2)cc1OC [Example 84]
16,2000,"CCCn1ccc(NC(=O)C2=CC(c3ccc(OC)c(OC)c3)=NS(=O)(=O)N2C)n1 [Example 85, 5-(3,4-dimethoxyphenyl)-2-methyl-1,1-dioxo-N-(1-propyl-1H-pyrazol-3-yl)-2H-1λ^6,2,6-thiadiazine-3-carboxamide]"
17,2900,"CCCCn1cc(NC(=O)C2=CC(c3ccc(OC)c(OC)c3)=NS(=O)(=O)N2C)cn1 [Example 86, N-(1-butyl-1H-pyrazol-4-yl)-5-(3,4-dimethoxyphenyl)-2-methyl-1,1-dioxo-2H-1λ^6,2,6-thiadiazine-3-carboxamide]"
18,10,"CCN1C(C(=O)Nc2cccc(C(F)(F)F)n2)=CC(c2ccc(OC)c(C(F)(F)F)c2)=NS1(=O)=O [Example 87, 2-ethyl-5-[4-methoxy-3-(trifluoromethyl)phenyl]-1,1-dioxo-N-[6-(trifluoromethyl)pyridin-2-yl]-2H-1λ^6,2,6-thiadiazine-3-carboxamide]"
19,1400,CCN1C(C(=O)Nc2ccnc(C(F)(F)F)c2)=CC([C@H]2CC[C@H](C(F)(F)F)CC2)=NS1(=O)=O [Example 88]

row,EC50 [nM],Structure (SMILES)
1,290,COc1ccc(C2=NS(=O)(=O)N(C(C)C)C(C(=O)Nc3cccc(C(F)(F)F)c3)=C2)cc1OC [Example 89]
2,1200,COc1ccc(C2=NS(=O)(=O)N(C(C)C)C(C(=O)Nc3cccc(Nc4cccc(F)n4)n3)=C2)cc1OC [Example 90]
3,290,COc1ccc(C2=NS(=O)(=O)N(C(C)C)C(C(=O)Nc3cccc(Cl)c3)=C2)cc1OC [Example 92]
4,120,CC(C)N1C(C(=O)Nc2cccc(C(F)(F)F)n2)=CC([C@H]2CC[C@H](C(F)(F)F)CC2)=NS1(=O)=O [Example 93]
5,45,CCCN1C(C(=O)Nc2cccc(C(F)(F)F)n2)=CC(c2ccc(OC)c(OC)c2)=NS1(=O)=O [Example 95]
6,330,CCCN1C(C(=O)Nc2cccc(C(F)(F)F)c2)=CC(c2cc(OC)c(OC)cc2F)=NS1(=O)=O [Example 96]
7,30,CCCN1C(C(=O)Nc2cccc(C(F)(F)F)n2)=CC(c2ccc(OC)c(C(F)(F)F)c2)=NS1(=O)=O [Example 97]
8,100,CCCN1C(C(=O)Nc2cccc(C(F)(F)F)c2)=CC(c2ccc(OC)c(C)c2)=NS1(=O)=O [Example 98]
9,40,CCCN1C(C(=O)Nc2cccc(C(F)(F)F)n2)=CC(c2ccc(OC)c(C)c2)=NS1(=O)=O [Example 99]
10,150,CCCN1C(C(=O)Nc2cccc(C(F)(F)F)c2)=CC(c2ccc(OC)c(Cl)c2)=NS1(=O)=O [Example 100]
11,65,CCCN1C(C(=O)Nc2cccc(C(F)(F)F)n2)=CC(c2ccc(OC)c(Cl)c2)=NS1(=O)=O [Example 101]
12,320,COc1ccc(C2=NS(=O)(=O)N(CC3CC3)C(C(=O)Nc3cccc(C(F)(F)F)c3)=C2)cc1OC [Example 102]
13,110,COc1ccc(C2=NS(=O)(=O)N(CC3CC3)C(C(=O)Nc3cccc(C(F)(F)F)n3)=C2)cc1OC [Example 103]
14,370,COc1ccc(C2=NS(=O)(=O)N(CC3CC3)C(C(=O)Nc3cccc(Cl)c3)=C2)cc1OC [Example 104]
15,120,COc1ccc(C2=NS(=O)(=O)N(CC3CC3)C(C(=O)Nc3cccc(C(F)(F)F)c3)=C2)cc1C [Example 105]
16,70,O=C(Nc1cccc(C(F)(F)F)n1)C1=CC([C@H]2CC[C@H](C(F)(F)F)CC2)=NS(=O)(=O)N1CC1CC1 [Example 106]
17,55,C=CCN1C(C(=O)Nc2cccc(C(F)(F)F)n2)=CC(c2ccc(OC)c(OC)c2)=NS1(=O)=O [Example 107]
18,1300,COc1ccc(NC(=O)C2=CC(c3ccc(OC)c(OC)c3)=NS(=O)(=O)N2C(C)C)cc1 [Example 108]
19,640,COc1ccc(C2=NS(=O)(=O)N(C(C)C)C(C(=O)Nc3cc(Cl)ccn3)=C2)cc1OC [Example 110]

row,EC50 [nM],Structure (SMILES)
1,200,CCCCN1C(C(=O)Nc2cccc(C(F)(F)F)c2)=CC(c2ccc(OC)c(OC)c2)=NS1(=O)=O [Example 111]
2,75,CCCN1C(C(=O)Nc2ccc(OC)cc2)=CC(c2ccc(OC)c(OC)c2)=NS1(=O)=O [Example 112]
3,80,CCCN1C(C(=O)Nc2cccc(C)c2)=CC(c2ccc(OC)c(OC)c2)=NS1(=O)=O [Example 113]
4,380,CCCN1C(C(=O)Nc2cccc(Cl)c2)=CC(c2ccc(OC)c(OC)c2)=NS1(=O)=O [Example 114]
5,85,CCCN1C(C(=O)Nc2cccc(C(F)(F)F)c2)=CC(c2ccc(OC)c(C(F)(F)F)c2)=NS1(=O)=O [Example 115]
6,100,COc1ccc(NC(=O)C2=CC(c3ccc(OC)c(OC)c3)=NS(=O)(=O)N2CC2CC2)cc1 [Example 116]
7,110,COc1ccc(C2=NS(=O)(=O)N(CC3CC3)C(C(=O)Nc3cccc(C)c3)=C2)cc1OC [Example 117]
8,530,COc1ccc(C2=NS(=O)(=O)N(CC(F)(F)F)C(C(=O)Nc3cccc(C(F)(F)F)c3)=C2)cc1OC [Example 118]
9,380,COc1ccc(C2=NS(=O)(=O)N(CC(F)(F)F)C(C(=O)Nc3cccc(C)c3)=C2)cc1OC [Example 119]
10,120,C=CCN1C(C(=O)Nc2ccc(OC)cc2)=CC(c2ccc(OC)c(OC)c2)=NS1(=O)=O [Example 120]
11,220,C=CCN1C(C(=O)Nc2cccc(C(F)(F)F)c2)=CC(c2ccc(OC)c(OC)c2)=NS1(=O)=O [Example 121]
12,55,COc1ccc(C2=NS(=O)(=O)N(C(C)C)C(C(=O)Nc3cccc(F)n3)=C2)cc1OC [Example 123]
13,110,CC(C)N1C(C(=O)Nc2cncc(C(F)(F)F)n2)=CC([C@H]2CC[C@H](C(F)(F)F)CC2)=NS1(=O)=O [Example 124]
14,45,CC(C)N1C(C(=O)Nc2cccc(F)n2)=CC([C@H]2CC[C@H](C(F)(F)F)CC2)=NS1(=O)=O [Example 125]
15,220,CC(C)N1C(C(=O)Nc2cccc(C(F)(F)F)n2)=CC(C2CCC(F)(F)CC2)=NS1(=O)=O [Example 126]
16,580,CC(C)N1C(C(=O)Nc2cccc(F)n2)=CC(C2CCC(F)(F)CC2)=NS1(=O)=O [Example 127]
17,310,COCCN1C(C(=O)Nc2cccc(C(F)(F)F)n2)=CC([C@H]2CC[C@H](C(F)(F)F)CC2)=NS1(=O)=O [Example 128]
18,960,COCCN1C(C(=O)Nc2cccc(C(F)(F)F)n2)=CC(C2CCC(F)(F)CC2)=NS1(=O)=O [Example 130]
